Consider 3 compounds from PMC4685510, “A Cell Biologist’s Field Guide to Aurora Kinase Inhibitors” (Frontiers in Oncology, 2015).

Holding throughout (assay): biochemical
Type in all cases: biochemical

The target of assay [1] is 363 human kinases (including Aurora A/B/C) (Homo sapiens, UniProt P34947). The following applies: GRK5; for remaining activity at 0.1 µM: 100 nM; for remaining activity at 0.1 µM / remaining activity at 0.5 µM: read-out: % Enzyme Activity (relative to DMSO controls).
Description: (§1) However, the Aurora A/B selectivity ratios derived from our in vitro and in vivo data can be compared to prioritize inhibitors.
Assay [2] addresses T1, 363 human kinases (including Aurora A/B/C) (Homo sapiens, UniProt O14757).
T1 sequence (O14757 1-476): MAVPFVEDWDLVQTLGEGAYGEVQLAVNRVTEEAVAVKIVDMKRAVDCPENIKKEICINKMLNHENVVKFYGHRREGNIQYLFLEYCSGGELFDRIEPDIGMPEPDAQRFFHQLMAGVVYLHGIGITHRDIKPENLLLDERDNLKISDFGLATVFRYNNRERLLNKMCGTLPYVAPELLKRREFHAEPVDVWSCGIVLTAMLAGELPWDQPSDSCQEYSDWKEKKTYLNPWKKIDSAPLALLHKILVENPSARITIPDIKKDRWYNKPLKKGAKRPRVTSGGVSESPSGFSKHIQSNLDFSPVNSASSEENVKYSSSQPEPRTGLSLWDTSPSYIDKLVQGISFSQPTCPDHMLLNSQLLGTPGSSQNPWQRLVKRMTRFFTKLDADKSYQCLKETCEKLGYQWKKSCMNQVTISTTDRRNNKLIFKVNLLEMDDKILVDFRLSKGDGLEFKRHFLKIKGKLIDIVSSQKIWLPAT
The following applies: CHK1, [ATP] 20 µM; for remaining activity at 0.1 µM: 100 nM; for remaining activity at 0.1 µM / remaining activity at 0.5 µM: read-out: % Enzyme Activity (relative to DMSO controls).
Description: as §1

Assay [3] concerns the target 363 human kinases (including Aurora A/B/C) (Homo sapiens, UniProt P30291). The settings on record: WEE1; for remaining activity at 0.1 µM: 100 nM; for remaining activity at 0.1 µM / remaining activity at 0.5 µM: read-out: % Enzyme Activity (relative to DMSO controls).
Description: as §1
The target of assay [4] is T2, 363 human kinases (including Aurora A/B/C) (Homo sapiens, UniProt O00141).
T2 sequence (O00141 1-431): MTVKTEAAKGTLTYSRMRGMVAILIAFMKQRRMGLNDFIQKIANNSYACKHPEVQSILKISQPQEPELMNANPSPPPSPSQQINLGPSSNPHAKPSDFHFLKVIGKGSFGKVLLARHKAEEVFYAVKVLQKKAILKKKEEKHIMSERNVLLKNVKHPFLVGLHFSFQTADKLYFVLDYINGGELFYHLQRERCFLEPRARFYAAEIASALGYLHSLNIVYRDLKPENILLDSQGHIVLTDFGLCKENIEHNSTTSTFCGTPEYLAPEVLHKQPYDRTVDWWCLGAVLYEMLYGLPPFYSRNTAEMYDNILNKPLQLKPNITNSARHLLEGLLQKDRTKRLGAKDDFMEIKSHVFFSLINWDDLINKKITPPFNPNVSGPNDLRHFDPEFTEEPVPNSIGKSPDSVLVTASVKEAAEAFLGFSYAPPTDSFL
The following applies: SGK1; for remaining activity at 0.1 µM: 100 nM; for remaining activity at 0.1 µM / remaining activity at 0.5 µM: read-out: % Enzyme Activity (relative to DMSO controls).
Description: as §1

For assay [5], the target named is 363 human kinases (including Aurora A/B/C) (Homo sapiens, UniProt O75716). The following applies: STK16; for remaining activity at 0.1 µM: 100 nM; for remaining activity at 0.1 µM / remaining activity at 0.5 µM: read-out: % Enzyme Activity (relative to DMSO controls).
363 human kinases (including Aurora A/B/C) (Homo sapiens, UniProt O75716), sequence (O75716 whole entry): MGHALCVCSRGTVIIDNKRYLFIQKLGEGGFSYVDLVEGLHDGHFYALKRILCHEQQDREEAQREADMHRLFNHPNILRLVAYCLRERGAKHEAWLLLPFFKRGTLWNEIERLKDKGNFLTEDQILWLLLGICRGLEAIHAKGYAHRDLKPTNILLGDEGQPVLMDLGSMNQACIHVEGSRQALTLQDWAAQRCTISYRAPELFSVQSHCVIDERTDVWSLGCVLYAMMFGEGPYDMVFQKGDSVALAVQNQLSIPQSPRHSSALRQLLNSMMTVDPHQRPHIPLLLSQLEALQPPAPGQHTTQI
Description: as §1
Assay [6] addresses 363 human kinases (including Aurora A/B/C) (Homo sapiens, UniProt Q8N568). The following applies: DCAMKL2, [ATP] 100 µM; for remaining activity at 0.1 µM: 100 nM; for remaining activity at 0.1 µM / remaining activity at 0.5 µM: read-out: % Enzyme Activity (relative to DMSO controls).
Description: as §1
For assay [7], the target named is T3, 363 human kinases (including Aurora A/B/C) (Homo sapiens, UniProt Q13873).
T3 sequence (Q13873 27-1038): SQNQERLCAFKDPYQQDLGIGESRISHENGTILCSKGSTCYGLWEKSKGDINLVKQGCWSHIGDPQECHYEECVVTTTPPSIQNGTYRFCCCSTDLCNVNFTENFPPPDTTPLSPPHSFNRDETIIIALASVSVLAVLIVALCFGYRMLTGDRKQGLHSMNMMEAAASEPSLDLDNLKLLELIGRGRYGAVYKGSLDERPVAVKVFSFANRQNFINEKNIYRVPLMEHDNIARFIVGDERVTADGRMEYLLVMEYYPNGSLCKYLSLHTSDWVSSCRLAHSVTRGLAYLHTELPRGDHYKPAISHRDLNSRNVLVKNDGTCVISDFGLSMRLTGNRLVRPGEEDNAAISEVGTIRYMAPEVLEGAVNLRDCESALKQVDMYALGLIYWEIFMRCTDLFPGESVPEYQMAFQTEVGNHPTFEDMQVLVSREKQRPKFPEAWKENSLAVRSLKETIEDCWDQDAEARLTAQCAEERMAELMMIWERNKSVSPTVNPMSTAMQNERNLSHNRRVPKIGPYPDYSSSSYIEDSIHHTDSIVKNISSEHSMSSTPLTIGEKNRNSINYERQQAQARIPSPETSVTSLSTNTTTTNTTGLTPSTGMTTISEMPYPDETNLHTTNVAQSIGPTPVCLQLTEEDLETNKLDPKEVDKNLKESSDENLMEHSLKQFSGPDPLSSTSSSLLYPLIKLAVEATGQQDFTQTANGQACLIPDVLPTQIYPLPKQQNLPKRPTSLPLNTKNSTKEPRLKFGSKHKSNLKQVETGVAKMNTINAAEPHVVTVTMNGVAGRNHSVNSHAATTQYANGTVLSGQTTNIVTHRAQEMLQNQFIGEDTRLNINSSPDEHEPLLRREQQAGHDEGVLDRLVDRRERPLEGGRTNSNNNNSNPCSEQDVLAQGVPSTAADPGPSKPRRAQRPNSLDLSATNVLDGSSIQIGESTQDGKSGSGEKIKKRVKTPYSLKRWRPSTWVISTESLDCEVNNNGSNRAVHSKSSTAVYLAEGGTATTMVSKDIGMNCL
The following applies: BMPR2, [ATP] 15 µM; for remaining activity at 0.1 µM: 100 nM; for remaining activity at 0.1 µM / remaining activity at 0.5 µM: read-out: % Enzyme Activity (relative to DMSO controls).
Description: as §1

Assay [8] addresses 363 human kinases (including Aurora A/B/C) (Homo sapiens, UniProt P43250). The settings on record: GRK6; for remaining activity at 0.1 µM: 100 nM; for remaining activity at 0.1 µM / remaining activity at 0.5 µM: read-out: % Enzyme Activity (relative to DMSO controls).
Description: as §1

363 human kinases (including Aurora A/B/C) (Homo sapiens, UniProt Q8N568), sequence (Q8N568 whole entry): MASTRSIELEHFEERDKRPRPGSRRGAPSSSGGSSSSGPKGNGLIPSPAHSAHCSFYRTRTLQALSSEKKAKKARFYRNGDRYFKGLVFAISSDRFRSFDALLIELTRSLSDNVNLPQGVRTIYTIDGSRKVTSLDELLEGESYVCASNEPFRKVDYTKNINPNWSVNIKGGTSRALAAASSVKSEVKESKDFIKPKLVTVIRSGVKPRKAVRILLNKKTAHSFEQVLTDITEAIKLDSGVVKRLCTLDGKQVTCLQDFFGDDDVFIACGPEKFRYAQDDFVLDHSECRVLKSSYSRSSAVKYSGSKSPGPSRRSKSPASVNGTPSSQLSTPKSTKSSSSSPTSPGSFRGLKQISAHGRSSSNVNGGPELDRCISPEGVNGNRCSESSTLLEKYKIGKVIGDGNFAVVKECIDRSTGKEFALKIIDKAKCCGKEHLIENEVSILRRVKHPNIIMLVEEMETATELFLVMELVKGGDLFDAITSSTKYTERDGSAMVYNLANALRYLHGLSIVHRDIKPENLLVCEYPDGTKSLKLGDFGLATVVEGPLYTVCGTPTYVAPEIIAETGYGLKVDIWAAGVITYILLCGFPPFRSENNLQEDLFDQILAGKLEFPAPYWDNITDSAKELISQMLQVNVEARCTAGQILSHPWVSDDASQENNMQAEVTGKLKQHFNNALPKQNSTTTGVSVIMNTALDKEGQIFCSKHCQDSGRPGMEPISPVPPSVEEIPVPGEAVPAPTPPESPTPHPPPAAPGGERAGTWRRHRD
363 human kinases (including Aurora A/B/C) (Homo sapiens, UniProt P34947), sequence (P34947 whole entry): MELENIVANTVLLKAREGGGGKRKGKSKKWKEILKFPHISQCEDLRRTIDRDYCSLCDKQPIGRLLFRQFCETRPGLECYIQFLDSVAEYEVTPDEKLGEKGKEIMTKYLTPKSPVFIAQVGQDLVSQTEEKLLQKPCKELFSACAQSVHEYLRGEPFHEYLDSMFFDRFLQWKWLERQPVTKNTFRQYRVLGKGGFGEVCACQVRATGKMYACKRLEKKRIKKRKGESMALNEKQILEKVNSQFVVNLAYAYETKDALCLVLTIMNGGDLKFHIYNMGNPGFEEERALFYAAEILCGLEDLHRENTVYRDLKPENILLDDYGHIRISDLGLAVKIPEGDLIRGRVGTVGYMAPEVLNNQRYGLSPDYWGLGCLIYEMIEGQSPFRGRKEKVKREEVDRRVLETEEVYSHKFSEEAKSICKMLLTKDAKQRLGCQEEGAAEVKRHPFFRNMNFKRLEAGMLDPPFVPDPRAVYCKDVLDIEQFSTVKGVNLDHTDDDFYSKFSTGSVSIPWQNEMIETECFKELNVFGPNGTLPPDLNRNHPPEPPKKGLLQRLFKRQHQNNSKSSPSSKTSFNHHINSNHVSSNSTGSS
363 human kinases (including Aurora A/B/C) (Homo sapiens, UniProt P30291), sequence (P30291 whole entry): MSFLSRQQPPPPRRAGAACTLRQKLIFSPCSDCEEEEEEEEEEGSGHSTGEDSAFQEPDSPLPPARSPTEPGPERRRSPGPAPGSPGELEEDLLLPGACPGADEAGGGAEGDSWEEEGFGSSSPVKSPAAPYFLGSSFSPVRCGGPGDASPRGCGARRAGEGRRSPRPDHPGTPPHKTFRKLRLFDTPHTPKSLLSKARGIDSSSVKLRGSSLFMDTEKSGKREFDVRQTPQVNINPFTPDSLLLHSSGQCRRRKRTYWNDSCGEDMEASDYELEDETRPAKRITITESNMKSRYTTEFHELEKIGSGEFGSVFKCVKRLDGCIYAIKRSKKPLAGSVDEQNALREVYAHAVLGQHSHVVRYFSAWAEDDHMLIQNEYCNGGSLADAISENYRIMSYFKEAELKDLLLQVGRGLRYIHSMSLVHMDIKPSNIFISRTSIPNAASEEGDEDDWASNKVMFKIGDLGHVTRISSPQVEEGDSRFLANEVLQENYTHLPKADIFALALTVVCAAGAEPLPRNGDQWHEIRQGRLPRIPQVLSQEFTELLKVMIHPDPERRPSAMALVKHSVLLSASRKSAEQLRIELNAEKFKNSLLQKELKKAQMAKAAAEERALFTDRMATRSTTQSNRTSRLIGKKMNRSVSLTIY
363 human kinases (including Aurora A/B/C) (Homo sapiens, UniProt P43250), sequence (P43250 whole entry): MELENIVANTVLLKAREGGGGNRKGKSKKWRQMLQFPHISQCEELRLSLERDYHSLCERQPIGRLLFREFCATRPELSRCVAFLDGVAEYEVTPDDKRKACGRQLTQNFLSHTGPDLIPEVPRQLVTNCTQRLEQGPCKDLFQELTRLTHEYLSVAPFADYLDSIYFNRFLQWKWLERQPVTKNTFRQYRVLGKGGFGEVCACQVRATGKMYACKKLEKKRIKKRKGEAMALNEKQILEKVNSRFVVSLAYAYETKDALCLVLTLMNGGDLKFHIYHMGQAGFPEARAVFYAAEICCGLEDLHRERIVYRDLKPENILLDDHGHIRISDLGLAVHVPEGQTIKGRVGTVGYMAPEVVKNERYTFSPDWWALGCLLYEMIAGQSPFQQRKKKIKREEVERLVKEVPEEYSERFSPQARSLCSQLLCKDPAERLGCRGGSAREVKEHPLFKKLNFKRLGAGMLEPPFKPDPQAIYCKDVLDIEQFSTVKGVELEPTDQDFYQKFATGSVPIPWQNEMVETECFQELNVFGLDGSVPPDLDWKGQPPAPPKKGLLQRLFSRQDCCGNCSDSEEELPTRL

With `CCn1cc(-c2ccnc3[nH]c(-c4cccc(CN(C)C)c4)cc23)c(-c2ccc(NC(=O)N(C)C)cc2)n1` [GSK1070916], the remaining activity at 0.1 µM amounted to 96.3% in assay [1]; 98.7% in assay [2]; 97% in assay [3]; 118% in assay [4]; 107% in assay [5]; 91.5% in assay [6]. In addition, the remaining activity at 0.1 µM in assay [7] was 147%; in assay [8] it was 106%.

On to `O=C(O)[C@]1(Cc2cccc(Nc3nccs3)n2)CC[C@@H](Oc2cccc(Cl)c2F)CC1` [MK-5108], for which the remaining activity at 0.1 µM in assay [1] was 102%; in assay [2], 103%; in assay [3] it was 106%; in assay [4], 104%; in assay [5], 70.7%; in assay [6], 98.2%. Besides, the remaining activity at 0.1 µM in assay [7] was found to be 46.4%; in assay [8], 104%. The remaining activity at 0.5 µM in assay [1] (500 nM) came out at 90.9%; in assay [2] (500 nM), 148%; in assay [3] (500 nM), 93.4%; in assay [4] (500 nM) it was 113%; in assay [5] (500 nM) it was 15.2%; in assay [6] (500 nM) it was 96.3%. The figures for the remaining activity at 0.5 µM in assay [7] (500 nM) and in assay [8] (500 nM) were 37% and 101%, respectively.

On to `O=C(c1cccc(Cl)c1F)N1CCN(Cc2cccc(Nc3nccs3)n2)CC1` [MK-8745], for which the “% Enzyme Activity (relative to DMSO controls)” value in assay [1] (500 nM) worked out at 94.27%; in assay [2] (500 nM), 104.15%; in assay [3] (500 nM), 99.94%; in assay [4] (500 nM), 103.73%; in assay [5] (500 nM) it was 70.34%; in assay [6] (500 nM), 95.95%. The “% Enzyme Activity (relative to DMSO controls)” value in assay [7] (500 nM) turned out to be 98.44%; in assay [8] (500 nM), 98.74%. The remaining activity at 0.5 µM in assay [1] (500 nM) was 95.8%; in assay [2] (500 nM), 105%; in assay [3] (500 nM), 105%; in assay [4] (500 nM) it was 104%; in assay [5] (500 nM), 71.1%; in assay [6] (500 nM) it was 96%. Besides, the figures for the remaining activity at 0.5 µM in assay [7] (500 nM) and in assay [8] (500 nM) were 106% and 100%, respectively.
